Results reported in ChEMBL document CHEMBL1144167, “Development and biological evaluation of C(60) fulleropyrrolidine-thalidomide dyad as a new anti-inflammation agent” (2008).
The source made the active and inactive calls. The calls are words filed in the database; no cut-off is given here.

Legend:
RAW264.7 [1] = test: Antiinflammatory activity in mouse RAW264.7 cells assessed as inhibition of LPS-induced nitric oxide production at 10 uM pretreated for 3 hrs before LPS challenge assessed after 24 hrs by griess assay relative to control; format: functional; set-up: scale not given: the % may be the effect or the level left
RAW264.7 [2] = test: Reduction in pERK1/2 expression in LPS-activated mouse RAW264.7 cells at 10 uM pretreated for 3 hrs before LPS challenge assessed after 24 hrs by Western blot; format: functional, cell-based
RAW264.7 [3] = test: Reduction in iNOS expression in LPS-activated mouse RAW264.7 cells at 1 uM pretreated for 3 hrs before LPS challenge assessed after 24 hrs by Western blot; format: functional, cell-based
RAW264.7 [4] = test: Antiinflammatory activity in mouse LPS-activated RAW264.7 cells assessed as mean fluorescent intensity of ROS scavenging activity at 10 uM pretreated for 3 hrs before LPS challenge by FACS; format: functional
RAW264.7 [5] = test: Reduction in iNOS expression in LPS-activated mouse RAW264.7 cells at 10 uM pretreated for 3 hrs before LPS challenge assessed after 24 hrs by Western blot; format: functional, cell-based
RAW264.7 [6] = test: Antiinflammatory activity in mouse LPS-activated RAW264.7 cells assessed as ROS scavenging activity at 10 uM pretreated for 3 hrs before LPS challenge measured by decrease in fluorescent intensity by confocal microscopy; format: functional, cell-based
RAW264.7 [7] = test: Antiinflammatory activity in mouse RAW264.7 cells assessed as inhibition of LPS-induced nitric oxide production pretreated for 3 hrs before LPS challenge assessed after 24 hrs by griess assay; format: functional, cell-based
RAW264.7 [8] = test: Antiinflammatory activity in mouse RAW264.7 cells assessed as inhibition of LPS-induced TNFalpha synthesis at 10 uM pretreated for 3 hrs before LPS challenge assessed after 24 hrs by ELISA relative to control; format: functional; set-up: scale not given: the % may be the effect or the level left

Structure (SMILES): O=C1CCC(N2C(=O)c3ccccc3C2=O)C(=O)N1 (stereo not drawn) [THALIDOMIDE]
- Activity (RAW264.7 [1]): 44.1%
- Activity (RAW264.7 [2]): Active
- Activity (RAW264.7 [3]): Active
- Flu intensity (RAW264.7 [4]): 468.37
- Activity (RAW264.7 [5]): Active
- Activity (RAW264.7 [6]): Active
- Activity (RAW264.7 [7]): Dose-dependent effect
- Activity (RAW264.7 [8]): 55.5%
